# In patent publication US20020086860A1, “[1,4]Diazepino [6,7,1-jk] carbazoles and derivatives” (American Home Products Corporation, priority 2000, published 2002):
# Structures can show the parent of a compound that is named as a salt. Where two headings read alike, the source gives them in different places.
# What was measured:
# [1] = biological target: T1, human 5-hydroxytryptamine2C (h5HT2C) receptor (Homo sapiens, UniProt P28335); assay: 5HT2C Receptor Binding Test Procedure ([125I]DOI displacement, CHO cell membranes)
# T1 construct: expressed in transfected cells; host or cells: CHO (Chinese Hamster Ovary) cells; membrane preparation
# T1 sequence (P28335 33-458): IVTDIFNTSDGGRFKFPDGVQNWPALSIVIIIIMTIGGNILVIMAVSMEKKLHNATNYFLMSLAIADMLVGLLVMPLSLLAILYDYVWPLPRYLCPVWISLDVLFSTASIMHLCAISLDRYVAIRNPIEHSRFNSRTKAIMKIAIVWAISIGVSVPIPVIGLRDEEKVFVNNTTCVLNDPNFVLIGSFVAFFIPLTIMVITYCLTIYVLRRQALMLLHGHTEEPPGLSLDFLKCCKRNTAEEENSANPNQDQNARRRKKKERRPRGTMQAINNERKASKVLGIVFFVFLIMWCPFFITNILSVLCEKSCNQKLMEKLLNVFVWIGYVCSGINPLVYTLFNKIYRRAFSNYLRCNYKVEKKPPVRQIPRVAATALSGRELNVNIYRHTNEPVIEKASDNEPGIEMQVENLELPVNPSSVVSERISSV
# human 5-HT2C receptor = biological target: T2, human 5-HT2C receptor (Homo sapiens, UniProt P28335); assay: Stimulation of [3H] Inositol Monophosphate production by 5HT2C agonists in transfected CHO cells; conditions: for Emax: CHO, read-out: 5HT2C % Emax (5HT, 100%)
# T2 sequence (P28335 33-458): T1 sequence (P28335 33-458)
# Protocol: One (1) ml of maintenance medium containing 1 μCi/ml myo-[^3H] inositol was added to each well. After 48 hours labeling, the cells were washed once with 0.5 ml DMEM containing 25 mM HEPES and 10 mM LiCl, then preincubated with the medium for 30 min (antagonists were included in this period if tested). At the end of the preincubation, the medium was removed, the cells were then incubated with test compounds (in presence of antagonists if needed) for 30 min. The reaction was terminated by removal of the incubation solution and addition of 0.5 ml ice-cold 5% PCA, followed by 15 to 30 min incubation on ice. 200 μl of 0.5 M Tes/1.5 M K2CO3 was added to each well to neutralize to pH 7, and plates were left on ice for another 15 to 30 min to precipitate all salts. The liquid and solid phases were separated by centrifugation.
# A portion (350 μl) of the upper aqueous phase was applied to Dowex AG-1×8 (formate form, 100-200 mesh) columns. The columns were then washed stepwise with 10 ml of water and 10 ml of 25 mM ammonium formate to remove free myo-[^3H]inositol and deacylated phosphoinositol, respectively. Finally 10 ml of 0.2 M ammonium formate solution was applied to the columns to elute [^3H] inositol monophosphate ([^3H] IP1) directly into scintillation vials. Of this eluate, 1 ml was used to determine radioactivity by scintillation counting.
# A 3-parameter logistic function is used to generate estimate of EC50/IC50.
# male Sprague-Dawley rats = assay: Effects of Compounds on Feeding Behavior in Rats (food intake, 24 hr fast); format: in vivo; conditions: Rattus norvegicus, ip, dose giving 50% reduction in food intake, read-out: ED50 (mg/kg), 5HT2C Food Intake in Rats
# Protocol: Effects of Compounds on Feeding Behavior in Rats
# Eight (8) male Sprague-Dawley rats weighing 150-180 g were separated into individual cages and acclimated to a powdered diet for 2 weeks. During this period and throughout the test procedure, the food cup and the animals were weighed daily. Following the acclimation period, animals were fasted for 24 hours and then injected with either vehicle or one of 4 doses of the test compound. Food intake was assessed at 2 and 24 hours following compound administration. Compounds to be evaluated were injected 1-2× per week until all animals had received all doses of the test compound. The order of doses were chosen using to a modified Latin Square design. Additional studies may be conducted in satieted rats at the start of the dark cycle. Compounds were injected i.p, s.c. or p.o. At the end of the study effects of the test compound on food intake was evaluated using a repeated measures ANOVA. Data were collected were 2 hour food intake (g). Data were subjected to one-way ANOVA with posthoc t-tests to assess group differences. Where appropriate, ED50 values were calculated.
# [2] = system: several animal species and humans; conditions: Cowen et al. 1995; cited from earlier work
# [3] = read-out: Ki value and 95% confidence interval (reference compounds)
smiles,measurement,setting,value
"c1cc2c3c(c1)C1CCCCC1N3CCNC2 (centres unmarked) (as salt: hydrochloride) [Example 2, 1,2,3,4,7b,8,9,10,11,11a-Decahydro-[1,4]diazepino[6,7,1-jk]carbazole]",melting point,,265 to 269 °C
CSc1ccc2c(c1)C(N1CCN(C)CC1)Cc1ccccc1S2 (centres unmarked) [Methiothepin],Ki,"[1]; [125I]DOI binding, h5HT2C in CHO membranes, 95% confidence interval in brackets, read-out: Ki value and 95% confidence interval (reference compounds)",4.6 nM
CC[C@@H](CO)NC(=O)[C@@H]1C=C2c3cccc4c3c(cn4C)C[C@H]2N(C)C1 [Methysergide],Ki,[1],6.3 nM
"Clc1cc2c3c(c1)c1c(n3CCNC2)CCCC1 [Example 5, 6-Chloro-1,2,3,4,8,9,10,11-octahydro[1,4]diazepino[6,7,1-jk]cabazole]",Ki,[1],358 nM
COc1cc(CC(C)N)c(OC)cc1I (centres unmarked) [[^125I] DOI],Kd,"[1]; read-out: dissociation constant, KD of [125I] DOI at the human serotonin 5HT2C receptor, saturation binding with increasing concentrations of [125I] DOI",0.4 nM
"CC1(C)CCc2c(c3cccc4c3n2CCNC4)C1 [Example 4, 9,9,Dimethyl-1,2,3,4,8,9,10,11-octahydro[1,4]diazepino[6,7,1-jk]carbazole]",Ki,[1],243 nM
"c1cc2c3c(c1)C1CCCCC1N3CCNC2 (centres unmarked) [Example 2, 1,2,3,4,7b,8,9,10,11,11a-Decahydro-[1,4]diazepino[6,7,1-jk]carbazole]",Ki,[1],92 nM
same,EC50,human 5-HT2C receptor,207 nM
same,Emax,human 5-HT2C receptor,70%
Cc1nc2sccn2c(=O)c1CCN1CCC(=C(c2ccc(F)cc2)c2ccc(F)cc2)CC1 [Ritanserin],Ki,[1]; [3],2 nM
"c1cc2c3c(c1)c1c(n3CCNC2)CCCC1 [Example 1, 1,2,3,4,8,9,10,11-Octahydro-[1,4]diazepino[6,5,4-jk]carbazole]",ED50,male Sprague-Dawley rats,20.9 mg/kg
same,EC50,human 5-HT2C receptor,426 nM
same,Emax,human 5-HT2C receptor,90%
"Clc1cccc(N2CCNCC2)c1 [mCPP, meta-chlorophenylpiperazine]",effect on food intake,[2],decreases food intake
"CC1(C)Cc2c(c3cccc4c3n2CCNC4)C(C)(C)C1 [Example 3, 8,8,10,10-Tetramethyl-1,2,3,4,8,9,10,11-octahydro[1,4]diazepino[6,7,1-jk]carbazole]",Ki,[1],73 nM
CN1CCN(C2=Nc3ccccc3Oc3ccc(Cl)cc32)CC1 [Loxapine],Ki,[1]; [3],33 nM
"CCN1CCn2c3c(c4cc(Cl)cc(c42)C1)CCCC3 [Example 9, 6-Chloro-3-ethyl-1,2,3,4,8,9,10,11-octahydro[1,4]diazepino[6,5,4-jk]carbazole]","5HT2C Affinity DOI/Agonist binding, inhibition @ 1 μM",[1],55%
